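Dose response: 5 concentrations. Exposure: 48 h. Format: 96-well plates. Endpoint: linear interpolation; highest concentration if not reached. GI50 is the concentration that inhibits growth by half.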 Activity calls are given as the source filed them. Cut-off read from the data, not from the text of the source: active = GI50 up to about 1.1 µM and inactive = higher.
Tests used:
Experiment in all cases: NCI anticancer screen, dose series, 48 h
[1] = tested on: UACC-257
[2] = tested on: OVCAR-4
[3] = tested on: A498
[4] = tested on: 786-0
[5] = tested on: RPMI-8226
[6] = tested on: TK-10
[7] = tested on: NCI-H522
[8] = tested on: RXF 393
[9] = tested on: A549
[10] = tested on: SK-MEL-5
[11] = tested on: ACHN
[12] = tested on: HCC 2998
[13] = tested on: SK-MEL-2
[14] = tested on: Malme-3M
[15] = tested on: NCI-H23
[16] = tested on: IGROV-1
[17] = tested on: HT-29

Measured: GI50

Cn1ccnc1C(c1nccn1C)C(C)(C)[N+](=O)[O-]
inactive: [1] > 100 µM | [2] > 100 µM | [3] > 100 µM | [4] > 100 µM | [5] > 100 µM | [6] > 100 µM | [7] > 100 µM | [8] > 100 µM | [9] > 100 µM | [10] > 100 µM | [11] > 100 µM | [12] > 100 µM | [13] > 100 µM

O=C1C2CC=CCC2C(=O)C12CCc1ccccc12 (configuration not stated)
inactive: [2] > 100 µM | [4] > 100 µM | [14] > 100 µM | [15] > 100 µM | [16] > 100 µM | [6] > 100 µM | [8] > 100 µM | [17] > 100 µM | [9] > 100 µM | [11] > 100 µM | [12] > 100 µM

CCOC(=O)C(=O)CC(=O)C(Br)C(Br)c1ccc(Cl)cc1 (configuration not stated)
inactive: [1] 29.5 µM | [2] 65.9 µM | [4] 17.5 µM | [14] 31.8 µM | [15] 30.5 µM | [5] 22.3 µM | [16] 42.5 µM | [6] 52.2 µM | [7] 23.6 µM | [8] 30.4 µM | [17] 18.6 µM | [9] > 100 µM | [10] 57.4 µM | [11] 36 µM | [12] > 100 µM | [13] > 100 µM

C[s+]1c2ccccc2c2ccccc21
inactive: [2] > 100 µM | [4] > 100 µM | [14] > 100 µM | [15] > 10 µM | [5] > 100 µM | [16] > 100 µM | [6] > 100 µM | [7] > 100 µM | [8] > 100 µM | [17] > 100 µM | [9] > 100 µM | [10] > 100 µM | [11] > 100 µM | [12] > 100 µM | [13] > 100 µM

N=C(N)NS(=O)(=O)c1ccc(NC(=O)c2cccc3c(Nc4ccc(S(=O)(=O)N=C(N)N)cc4)c4ccccc4nc23)cc1
inactive: [1] > 100 µM | [2] 26.6 µM | [3] 47.4 µM | [4] 50.9 µM | [14] > 100 µM | [15] 44.3 µM | [5] > 100 µM | [16] 70.5 µM | [6] 52 µM | [7] 7.94 µM | [8] 99.1 µM | [17] 42.1 µM | [9] 79.1 µM | [10] 22.2 µM | [11] 51.1 µM | [13] > 100 µM

O=C1c2ccccc2C(=O)N1CC#CCO
inactive: [1] > 100 µM | [2] > 100 µM | [3] > 100 µM | [4] > 100 µM | [15] > 100 µM | [6] > 100 µM | [7] > 100 µM | [8] > 100 µM | [17] > 100 µM | [9] > 100 µM | [10] > 100 µM | [11] > 100 µM | [13] > 100 µM

OCC1OC2c3ccccc3COC2C1OCc1ccccc1 (configuration not stated)
inactive: [1] 37 µM | [2] > 100 µM | [4] > 100 µM | [14] > 100 µM | [15] 91.6 µM | [5] > 100 µM | [16] > 100 µM | [6] > 100 µM | [7] 70.1 µM | [8] > 100 µM | [17] > 100 µM | [9] > 100 µM | [10] 38.1 µM | [11] > 100 µM | [12] > 100 µM | [13] > 100 µM

O=C1OC2C(O)COC2(O)C1(O)Cc1c[nH]c2ccccc12 (configuration not stated)
inactive: [1] > 100 µM | [2] > 100 µM | [3] > 100 µM | [4] > 100 µM | [14] > 100 µM | [15] > 100 µM | [5] > 100 µM | [16] > 100 µM | [6] > 100 µM | [7] > 100 µM | [8] > 100 µM | [17] > 100 µM | [9] > 100 µM | [10] > 100 µM | [13] > 100 µM

CC(C)(C)/N=C\N(C=C(c1ccccc1)c1ccccc1)C1CCCCC1
inactive: [1] 33.3 µM | [2] 39.4 µM | [3] 23.3 µM | [4] 82.4 µM | [14] 17.1 µM | [15] 40.3 µM | [16] 50.9 µM | [6] 78.3 µM | [8] 19.4 µM | [17] 25.9 µM | [9] 81.3 µM | [10] 16.5 µM | [11] 36.4 µM | [13] 60.8 µM

Cn1ncc2c(Nc3ccc(Cl)cc3)c3ccccc3nc21
inactive: [1] 17.3 µM | [2] 12.4 µM | [3] 14.8 µM | [4] 14.1 µM | [14] 20.2 µM | [15] > 10 µM | [5] 20.1 µM | [16] 21.2 µM | [6] 21.4 µM | [7] 19.4 µM | [17] 13.5 µM | [9] 15.3 µM | [10] 13.6 µM | [11] 17 µM | [12] 22.9 µM | [13] 18.4 µM

COc1ccc(Nc2nc3ccc(C(F)(F)F)cc3nc2-c2ccccc2)cc1OC
inactive: [1] 38.5 µM | [2] > 100 µM | [3] 21.3 µM | [4] 23.3 µM | [14] 51.9 µM | [15] 32.4 µM | [16] 60.7 µM | [6] > 10 µM | [7] 24.7 µM | [8] 23 µM | [17] 6.65 µM | [9] 39.5 µM | [10] 35.8 µM | [11] 28.6 µM | [12] 14.6 µM | [13] 57.5 µM

COc1cc(OC)c(Oc2cccc(OC)c2OC)c(OC)c1
inactive: [1] > 100 µM | [2] > 100 µM | [3] > 100 µM | [4] > 100 µM | [15] > 100 µM | [16] > 100 µM | [6] > 100 µM | [7] > 100 µM | [17] > 100 µM | [9] > 100 µM | [10] > 100 µM | [11] > 100 µM | [12] > 100 µM | [13] > 100 µM

COC(=O)/C(C#N)=C1\NC(=O)c2ccccc21
inactive: [1] > 100 µM | [2] > 100 µM | [3] > 100 µM | [4] > 100 µM | [14] > 100 µM | [15] > 100 µM | [5] > 100 µM | [16] > 100 µM | [6] > 100 µM | [7] > 100 µM | [8] > 100 µM | [17] > 100 µM | [9] > 100 µM | [10] > 100 µM | [11] > 100 µM | [12] > 100 µM

CC(O)CNC(=O)C(C)Oc1ccc(OCC2CCCCC2)cc1 (configuration not stated)
inactive: [1] 73.6 µM | [2] > 100 µM | [3] 20.7 µM | [4] > 100 µM | [14] > 100 µM | [16] > 100 µM | [6] > 100 µM | [7] > 100 µM | [17] > 100 µM | [9] > 100 µM | [10] > 100 µM | [11] > 100 µM | [12] > 100 µM | [13] > 100 µM

Cc1ccc(-c2nnc(SCC(=O)O)[nH]2)cc1
inactive: [1] > 100 µM | [2] > 100 µM | [3] > 100 µM | [4] > 100 µM | [14] > 100 µM | [15] > 100 µM | [5] > 100 µM | [16] > 100 µM | [6] > 100 µM | [7] > 100 µM | [17] > 100 µM | [9] > 100 µM | [10] > 100 µM | [11] > 100 µM | [12] > 100 µM | [13] > 100 µM

CC[C@H](C)N(CCN)C(=O)c1cc2ccccc2c(-c2ccccc2Cl)n1
inactive: [1] 1.91 µM | [2] 14.6 µM | [3] 4.07 µM | [4] 4.49 µM | [15] 12.8 µM | [5] 13.2 µM | [16] 8.09 µM | [6] 12.1 µM | [7] 17.5 µM | [8] 6.55 µM | [17] 7.74 µM | [9] 4.41 µM | [11] 14.9 µM | [12] 2.72 µM | [13] 18.8 µM

Clc1cccc(Cl)c1C1SCc2nc3ccccc3n21 (configuration not stated)
inactive: [1] 21.1 µM | [2] 83.9 µM | [3] > 100 µM | [4] > 100 µM | [14] > 100 µM | [15] > 100 µM | [5] 9.2 µM | [16] 37.2 µM | [6] > 100 µM | [7] > 100 µM | [8] > 100 µM | [17] 43.9 µM | [9] > 100 µM | [10] 9.04 µM | [11] > 100 µM | [12] > 100 µM

Cn1cnc([N+](=O)[O-])c1Sc1nc2ccccc2[nH]1
inactive: [1] 15.1 µM | [2] 33 µM | [3] 21.2 µM | [4] 41.1 µM | [14] 16.3 µM | [15] 19.1 µM | [5] 15.5 µM | [16] 13.9 µM | [6] 19.3 µM | [8] 11.4 µM | [17] 27.7 µM | [9] 19.4 µM | [10] 13.1 µM | [11] 22.8 µM | [12] 12.3 µM

From ChEMBL document CHEMBL1201862, “PubChem BioAssay data set” (2004)
